Assay [1] addresses T1, Serine/threonine-protein kinase DCLK1 (Homo sapiens) (UniProt O15075).
T1 sequence (whole entry): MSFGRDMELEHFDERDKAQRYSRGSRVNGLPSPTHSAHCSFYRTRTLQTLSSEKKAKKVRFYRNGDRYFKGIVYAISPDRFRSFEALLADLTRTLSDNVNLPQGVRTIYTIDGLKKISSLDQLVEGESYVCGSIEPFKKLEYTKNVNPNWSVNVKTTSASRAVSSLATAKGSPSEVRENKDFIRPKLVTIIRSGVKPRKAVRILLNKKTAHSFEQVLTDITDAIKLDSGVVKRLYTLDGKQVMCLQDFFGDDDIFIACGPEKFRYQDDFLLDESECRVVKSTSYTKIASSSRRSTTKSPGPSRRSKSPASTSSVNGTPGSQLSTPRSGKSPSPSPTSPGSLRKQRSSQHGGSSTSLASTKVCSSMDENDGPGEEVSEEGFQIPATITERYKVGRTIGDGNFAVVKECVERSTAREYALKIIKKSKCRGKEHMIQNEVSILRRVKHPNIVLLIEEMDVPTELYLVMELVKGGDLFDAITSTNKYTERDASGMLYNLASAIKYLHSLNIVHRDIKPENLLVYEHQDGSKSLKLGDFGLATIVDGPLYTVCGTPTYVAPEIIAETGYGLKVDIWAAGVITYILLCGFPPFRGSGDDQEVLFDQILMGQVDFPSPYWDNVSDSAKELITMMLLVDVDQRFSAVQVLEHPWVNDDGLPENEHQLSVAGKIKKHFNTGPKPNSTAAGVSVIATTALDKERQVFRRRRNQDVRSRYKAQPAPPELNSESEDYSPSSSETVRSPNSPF
Put plainly: DCAMKL1 SGC Tm panel (DSF). The settings on record: for ΔTm: Compound concentration 10.0 uM.

Assay [2] deals with T2, Ephrin type-B receptor 1 (Homo sapiens) (UniProt P54762).
T2 sequence (whole entry): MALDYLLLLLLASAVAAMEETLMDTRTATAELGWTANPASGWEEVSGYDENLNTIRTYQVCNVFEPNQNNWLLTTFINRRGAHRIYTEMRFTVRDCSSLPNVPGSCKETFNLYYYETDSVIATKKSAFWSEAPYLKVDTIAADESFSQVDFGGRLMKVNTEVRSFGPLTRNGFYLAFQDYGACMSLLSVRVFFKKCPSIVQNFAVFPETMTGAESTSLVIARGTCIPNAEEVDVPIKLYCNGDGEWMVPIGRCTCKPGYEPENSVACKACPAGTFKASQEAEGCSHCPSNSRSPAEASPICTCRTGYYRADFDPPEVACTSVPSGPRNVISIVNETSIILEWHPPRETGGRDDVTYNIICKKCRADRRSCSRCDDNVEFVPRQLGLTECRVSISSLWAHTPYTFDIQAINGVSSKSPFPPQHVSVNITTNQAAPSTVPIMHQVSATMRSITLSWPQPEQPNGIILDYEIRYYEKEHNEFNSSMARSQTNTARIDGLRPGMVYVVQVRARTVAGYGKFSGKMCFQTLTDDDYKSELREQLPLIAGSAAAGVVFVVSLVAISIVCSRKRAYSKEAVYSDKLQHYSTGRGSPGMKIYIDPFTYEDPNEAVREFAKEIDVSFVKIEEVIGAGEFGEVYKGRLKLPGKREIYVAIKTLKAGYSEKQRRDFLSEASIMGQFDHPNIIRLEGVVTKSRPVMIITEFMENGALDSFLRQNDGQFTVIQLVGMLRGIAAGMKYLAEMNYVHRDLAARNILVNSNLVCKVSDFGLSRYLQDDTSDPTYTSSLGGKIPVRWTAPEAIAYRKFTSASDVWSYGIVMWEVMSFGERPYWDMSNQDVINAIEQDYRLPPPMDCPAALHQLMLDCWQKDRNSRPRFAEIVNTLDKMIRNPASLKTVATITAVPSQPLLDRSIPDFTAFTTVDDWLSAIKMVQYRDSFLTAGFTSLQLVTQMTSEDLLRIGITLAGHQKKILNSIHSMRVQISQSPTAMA
Put plainly: EPHB1 SGC Tm panel (DSF). Particulars: for ΔTm: Compound concentration 10.0 uM.

Assay [3] addresses T3, D(4) dopamine receptor (Homo sapiens) (UniProt P21917).
T3 sequence (whole entry): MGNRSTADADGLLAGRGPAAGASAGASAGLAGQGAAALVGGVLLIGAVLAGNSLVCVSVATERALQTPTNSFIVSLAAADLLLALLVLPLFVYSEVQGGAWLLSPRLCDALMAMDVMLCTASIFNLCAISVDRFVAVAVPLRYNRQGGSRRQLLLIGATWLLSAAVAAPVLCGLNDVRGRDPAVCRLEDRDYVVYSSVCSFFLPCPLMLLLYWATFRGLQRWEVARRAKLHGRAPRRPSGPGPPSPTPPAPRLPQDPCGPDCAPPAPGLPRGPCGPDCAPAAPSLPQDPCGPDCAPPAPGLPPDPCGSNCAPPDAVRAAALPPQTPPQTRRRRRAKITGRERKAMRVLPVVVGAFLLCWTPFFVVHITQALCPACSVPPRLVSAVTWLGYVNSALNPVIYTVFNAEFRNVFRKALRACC
Particulars: Compound concentration 10.0 uM.

A word on the inhibition: it is the relative decrease from the control value, in per cent. For `CCC[C@H]1CNCc2c1[nH]c(=O)c(C#N)c2N1CCC2(CC1)CC2`, in assay [1], the delta Tm Staurosporine positive control came to 12.7 and the ΔTm is -1.21. Also, in assay [2], the delta Tm Staurosporine positive control is 5.62 and the ΔTm was 0.0299. Besides, in assay [3], the inhibition was 15.9%.

For `CCC[C@@H]1CNCc2c1[nH]c(=O)c(C#N)c2N1CCC2(CC1)CC2`, in assay [1], the delta Tm Staurosporine positive control is 12.7 and the ΔTm is -1.16. Moreover, in assay [2], the delta Tm Staurosporine positive control came to 5.62 and the ΔTm was 0.00973. In assay [3], the inhibition was 18.8%.

The values above are taken from ChEMBL document CHEMBL5303765, “Data for DCP probe BAY-7081” (2023).
